Experiment: solvent given as SMILES

Compound: C(=C\c1c2ccccc2cc2ccccc12)/c1cccc2ccccc12
- emission maximum (in CC1CCCCC1): 501 nm
- emission maximum (in CC#N): 503 nm

Compound: C(#Cc1ccc(-n2c3ccccc3c3ccccc32)cc1)c1ccccc1
- emission maximum (in CC#N): 443 nm
- emission maximum (in CO): 401 nm
- emission maximum (in Cc1ccccc1): 364 nm
- emission maximum (in ClC(Cl)Cl): 379 nm
- emission maximum (in ClCCl): 390 nm

Compound: CCc1c(C)[nH]c(C2=[N+]3C(=Cc4c(C)c(CC)c(C)n4[B-]3(F)F)c3ccccc32)c1C
- emission maximum (in C1CCOC1): 644 nm
- emission maximum (in CC#N): 643 nm
- emission maximum (in CCCCCC): 641 nm
- emission maximum (in CO): 642 nm
- emission maximum (in Cc1ccccc1): 651 nm
- emission maximum (in ClCCl): 650 nm

Compound: CCCCC(CC)CN1C(=O)C2=C(c3ccc(-c4ccc(C5=C6C(C)=CC(C)=[N+]6[B-](F)(F)n6c(C)cc(C)c65)cc4)s3)N(CC(CC)CCCC)C(=O)C2=C1c1ccc(-c2ccc(C3=C4C(C)=CC(C)=[N+]4[B-](F)(F)n4c(C)cc(C)c43)cc2)s1 (stereo not drawn)
- emission maximum (in Cc1ccccc1): 637 nm

Compound: COC(=O)c1ccc(Oc2ccc3c4c(cccc24)C(=O)N(c2c(C(C)C)cccc2C(C)C)C3=O)cc1
- emission maximum (in ClCCl): 421 nm

Compound: O=c1c2ccccc2c2c3c(cccc13)c(-c1ccccc1)c1c3cccc4cccc(c43)c12
- emission maximum (in CC#N): 519 nm
- emission maximum (in CO): 562 nm

Compound: F[B-]1(F)Oc2c(-c3cccc4c3O[B-](F)(F)[n+]3c(-c5ccccc5)c(-c5ccccc5)n(-c5ccc(C(F)(F)F)cc5)c3-4)cccc2-c2n(-c3ccc(C(F)(F)F)cc3)c(-c3ccccc3)c(-c3ccccc3)[n+]21
- emission maximum (in C1CCOC1): 399 nm

Compound: CCCCC1(CCCC)c2cc(C#Cc3ccc(C=C4c5ccccc5-c5ccccc54)cc3)ccc2-c2ccc(C#Cc3ccc(C=C4c5ccccc5-c5ccccc54)cc3)cc21
- emission maximum (in C1CCOC1): 406 nm

Compound: O=C1c2ccccc2-c2cnccc21
- emission maximum (in CC#N): 516.76 nm
- emission maximum (in CCCCCC): 464.17 nm

Compound: COC(=O)c1ccc(/C=C2\N=C(c3ccc(OC)c(OC)c3)NC2=O)cc1
- emission maximum (in C1COCCO1): 478 nm

Compound: CC1(C)C(/C=C/C=C/C=C/C=C2/N(CCC(=O)O)c3ccc4ccccc4c3C2(C)C)=[N+](CCC(=O)O)c2ccc3ccccc3c21
- emission maximum (in CO): 817 nm

Compound: CCCCc1cc(CCCC)c2ccc3c(CCCC)cc(CCCC)c4ccc1c2c43
- emission maximum (in CCCCCC): 388 nm
- emission maximum (in CO): 388 nm
- emission maximum (in ClCCl): 389 nm

Compound: CCN(CC)c1ccc2c(c1)oc(=O)c1cnc3c(c(C)nn3-c3ccccc3)c12
- emission maximum (in ClCCl): 445 nm

Compound: CC(C)(C)NC(=O)c1ccc2ccc3cccc4c3c2c1c1c2ccccc2c2ccccc2c41
- emission maximum (in ClCCl): 425 nm

Compound: Cc1ccc2c(c1)n(C)c(-c1ccc(-c3ccc(-c4ccc(-c5n(C)c6cc(C)ccc6[n+]5C)cc4)cc3)cc1)[n+]2C
- emission maximum (in O): 397 nm

Compound: CCCC1(CCC)c2cc(-c3ccc(-c4ccccc4)cc3)ccc2-c2ccc(-c3ccc4c(c3)C(CCC)(CCC)c3cc(-c5ccc(-c6ccccc6)cc5)ccc3-4)cc21
- emission maximum (in Cc1ccccc1): 402 nm

Compound: CCCCC(CC)Cn1c2cc(C#N)ccc2c2ccc(C#Cc3ccc4ccc5c(C#Cc6ccc7c8ccc(C#N)cc8n(CC(CC)CCCC)c7c6)ccc6ccc3c4c65)cc21 (stereo not drawn)
- emission maximum (in ClCCl): 400 nm

Compound: COc1ccc2n1[B-](F)(F)[N+]1=C(SC#N)C=CC1=C2c1ccccc1
- emission maximum (in CC#N): 527 nm
- emission maximum (in CCCCCC): 532 nm
- emission maximum (in CCOC(C)=O): 529 nm
- emission maximum (in CO): 526 nm
- emission maximum (in ClCCl): 531 nm

Compound: CCCCCCOc1cc(/C=C/c2cc(OCCCCCC)c(/C=C/c3cc(OCCCCCC)c(C=O)cc3OCCCCCC)cc2OCCCCCC)c(OCCCCCC)cc1C=O
- emission maximum (in ClCCl): 521 nm

Compound: Cn1c2ccc(S(=O)(=O)Cl)cc2c(=O)c2cc(S(=O)(=O)Cl)ccc21
- emission maximum (in CS(C)=O): 424 nm

Compound: COc1cccc(/C=C/c2ccccc2)c1
- emission maximum (in C1CCCCC1): 358 nm
- emission maximum (in CC#N): 359 nm
- emission maximum (in CC(C)O): 357 nm
- emission maximum (in CCCCOCCCC): 358 nm
- emission maximum (in CCOC(C)=O): 358 nm
- emission maximum (in CCOCC): 357 nm

Compound: CCCCCCCCCc1c2ccccc2cc2c1oc1c3oc4c5oc6cc7ccccc7cc6c5c5ccccc5c4c3c3ccccc3c21
- emission maximum (in C1CCOC1): 428 nm

Compound: Cc1ccc(C(=O)/C=C2\C(=O)Nc3ccccc32)cc1C
- emission maximum (in C1CCCCC1): 387 nm
- emission maximum (in C1COCCO1): 397 nm
- emission maximum (in CC#N): 413 nm
- emission maximum (in CC(C)(C)O): 400 nm
- emission maximum (in CC(C)O): 403 nm
- emission maximum (in CCCCCC): 387 nm
- emission maximum (in CCCCO): 401 nm
- emission maximum (in CCOC(C)=O): 395 nm
- emission maximum (in CN(C)C=O): 417 nm
- emission maximum (in CO): 399 nm
- emission maximum (in ClCCl): 418 nm
- emission maximum (in O): 409 nm

Compound: O=C1c2cc3ccccc3cc2C2=Nc3ccc4ccccc4[n+]3[B-](F)(F)N12
- emission maximum (in ClCCl): 430 nm

Compound: CC(C)c1cc(N(C)C)c(C#N)c2c1-c1cccc3cccc-2c13
- emission maximum (in O): 554 nm

Compound: c1ccc(N2c3ccc4ccccc4c3-c3c4ccccc4nc[n+]3[B-]2(c2ccccc2)c2ccccc2)cc1
- emission maximum (in C1CCC2CCCCC2C1): 642 nm
- emission maximum (in C1CCCCC1): 640 nm
- emission maximum (in C1CCOC1): 665 nm
- emission maximum (in CC#N): 677 nm
- emission maximum (in CC(C)=O): 675 nm
- emission maximum (in CCCCCC): 641 nm
- emission maximum (in CCOC(C)=O): 665 nm
- emission maximum (in CN(C)C=O): 680 nm
- emission maximum (in Cc1ccccc1): 654 nm
- emission maximum (in ClC(Cl)Cl): 676 nm

Compound: CN1/C(=C/C=C(/C=C/c2sc3ccccc3[n+]2C)c2ccc(F)cc2)Sc2ccccc21
- emission maximum (in CCO): 674 nm
- emission maximum (in CO): 674 nm
- emission maximum (in CS(C)=O): 681 nm
- emission maximum (in O): 669 nm

Compound: FC(F)(F)c1ccc(-c2ncc3ccccn23)cc1
- emission maximum (in ClC(Cl)Cl): 459 nm

Compound: c1cc2ccc3cc4[nH]ccc4c4ccc(c1)c2c34
- emission maximum (in CCOC(C)=O): 398 nm

Compound: C(=C(c1ccccc1)c1ccccc1)c1ccc(-c2cc(-c3ccc(C=C(c4ccccc4)c4ccccc4)cc3)c(-c3ccc(C=C(c4ccccc4)c4ccccc4)cc3)cc2-c2ccc(C=C(c3ccccc3)c3ccccc3)cc2)cc1
- emission maximum (in C1CCOC1): 440 nm

Compound: CCCCCCOc1cc(/C=C/c2cc(OCCCCCC)c(/C=C/c3cc(OCCCCCC)c(C=C4C(=O)c5ccccc5C4=O)cc3OCCCCCC)cc2OCCCCCC)c(OCCCCCC)cc1C=C1C(=O)c2ccccc2C1=O
- emission maximum (in ClCCl): 662 nm

Compound: CCOC(=O)/C=C/c1cc2ccc(O)cc2oc1=O
- emission maximum (in CCO): 430 nm

Compound: CC[N+]1(CC)CN2C(=N1)C(C(=O)O)=Cc1cc(SC)ccc12
- emission maximum (in O): 515 nm

Compound: O=C1c2ccccc2NC(c2ccccc2)N1Cc1ccccc1 (stereo not drawn)
- emission maximum (in CC#N): 407 nm
- emission maximum (in CCCCCCCCCCCCCCCC): 383 nm
- emission maximum (in CO): 442 nm
- emission maximum (in ClC(Cl)Cl): 398 nm
- emission maximum (in c1ccccc1): 393 nm

Compound: Cc1c(COC(=O)c2ccc(I)cc2)n2c(OCC(=O)c3ccc(I)cc3)c(C)c(=O)n2c1=O
- emission maximum (in CCO): 458 nm

Compound: Cc1c(C)n2c(COC(=O)c3ccc(F)cc3)c(C)c(=O)n2c1=O
- emission maximum (in CCO): 460 nm

Compound: COc1ccc2c3c(c4ccc(OC)cc4c2c1)C(C)(C)c1ccccc1-3
- emission maximum (in C1CCCCC1): 391 nm

Compound: CC1(C)CC(NCc2ccc3ccc4cccc5ccc2c3c45)CC(C)(C)N1
- emission maximum (in C1CCCCC1): 375 nm
- emission maximum (in CC#N): 375 nm
- emission maximum (in CO): 375 nm
- emission maximum (in ClC(Cl)Cl): 396 nm

Compound: CC1(C)C(/C=C/C2=C(Oc3ccc(CCN=C=S)cc3I)C(=C/C=C3/N(CCCS(=O)(=O)[O-])c4ccccc4C3(C)C)/CCC2)=[N+](CCCS(=O)(=O)[O-])c2ccccc21
- emission maximum (in CO): 796 nm

Compound: Cc1cc2sccc2c2[nH]c3ccccc3c12
- emission maximum (in ClCCl): 346 nm

Compound: C(=C1c2ccccc2CCc2ccccc21)c1ccc(C=C2c3ccccc3CCc3ccccc32)cc1
- emission maximum (in C1CCOC1): 406 nm

Compound: CN1CCN(CCCN2c3ccccc3Sc3ccc(C(F)(F)F)cc32)CC1
- emission maximum (in CC#N): 470 nm
- emission maximum (in CO): 467 nm
- emission maximum (in O): 482 nm

Compound: C[SiH]1c2ccccc2-c2cc3c(cc21)-c1ccccc1[SiH]3C (stereo not drawn)
- emission maximum (in ClCCl): 389 nm

Compound: CCCCN(CCCC)c1ccc(/C=C/c2ccc3nc(/C=C/c4nc5ccc(/C=C/c6ccc(N(CCCC)CCCC)cc6)cc5n(CCC)c4=O)c(=O)n(CCC)c3c2)cc1
- emission maximum (in C1COCCO1): 630 nm
- emission maximum (in ClCCl): 736 nm

Compound: COc1ccc(C(=O)/C=C/c2ccc(N(C)C)cc2)cc1OC
- emission maximum (in C1CCOC1): 500 nm
- emission maximum (in CC#N): 525 nm
- emission maximum (in CC(=O)O): 513 nm
- emission maximum (in CC(C)=O): 511 nm
- emission maximum (in CCO): 533 nm
- emission maximum (in CN(C)C=O): 523 nm
- emission maximum (in CO): 535 nm
- emission maximum (in Cc1ccccc1): 468 nm
- emission maximum (in ClC(Cl)Cl): 507 nm
- emission maximum (in c1ccccc1): 470 nm

Compound: CCN(CC)c1ccc(/C=C/c2ccc(-c3ccc(/C=C/c4ccc(N(CC)CC)cc4)s3)s2)cc1
- emission maximum (in C1CCOC1): 544 nm
- emission maximum (in CC#N): 577 nm
- emission maximum (in CC(C)=O): 570 nm
- emission maximum (in CN(C)C=O): 586 nm
- emission maximum (in Cc1ccccc1): 530 nm

Compound: Cc1ccc(/C=C/c2ccccc2-[n+]2noc([O-])c2-c2ccccc2)cc1
- emission maximum (in C1CCCCC1): 400 nm
- emission maximum (in CC#N): 506 nm

Compound: CC1=[N+]2C(=C(NC(C)c3ccccc3)c3ccc(C)n3[B-]2(F)F)C=C1c1cc2n(c1)[B-](F)(F)[N+]1=CC=CC1=C2c1c(C)cc(C)cc1C (stereo not drawn)
- emission maximum (in C1CCCCC1): 640 nm
- emission maximum (in CCOC(C)=O): 700 nm

Compound: CC1(C)c2ccccc2N(c2ccc(C(=O)c3cc(C(=O)c4ccc(N5c6ccccc6C(C)(C)c6ccccc65)cc4)cc(C(=O)c4ccc(N5c6ccccc6C(C)(C)c6ccccc65)cc4)c3)cc2)c2ccccc21
- emission maximum (in Cc1ccccc1): 530 nm
- emission maximum (in c1ccc2c(c1)c1ccccc1n2-c1ccc(-c2ccc(-n3c4ccccc4c4ccccc43)cc2)cc1): 521 nm

Compound: CCCCCCCCC1(CCCCCCCC)c2cc(C=O)ccc2-c2ccc(/C=C/c3ccc(N(c4ccccc4)c4ccccc4)cc3)cc21
- emission maximum (in C1CCOC1): 451 nm
- emission maximum (in C1COCCO1): 450 nm
- emission maximum (in CC#N): 486 nm
- emission maximum (in CC(C)=O): 481 nm
- emission maximum (in CCCCCC): 442 nm
- emission maximum (in CCOC(C)=O): 456 nm
- emission maximum (in CN(C)C=O): 490 nm
- emission maximum (in CS(C)=O): 485 nm
- emission maximum (in Cc1ccccc1): 451 nm
- emission maximum (in ClC(Cl)Cl): 459 nm
- emission maximum (in ClCCl): 469 nm

Compound: O=c1oc2ccc3ccccc3c2nc1-c1ccc(Cl)cc1
- emission maximum (in c1ccccc1): 465 nm
